Data reported in PubChem BioAssay AID256 (DTP/NCI, 2004).
Inconclusive results and toxic doses are left out. How the source made its calls: active means survival T/C of 150% or more; inactive means T/C below 125% in these data.

Tested on: CD2F1 mice, L1210 leukemia ip, survival T/C
Assay: NCI In Vivo Anticancer Drug Screen. Data for tumor model L1210 Leukemia (intraperitoneal) in CD2F1 (CDF1) mice
Conditions: higher = longer survival
Summary of the method: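 Vehicle-treated tumor-bearing mice served as controls (C) for compound-treated mice (T). Reported figure is T divided by C.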

[1] = endpoint: mean survival time, dose: 100.0 mg/kg/injection, schedule: Q01DX009 (ip), vehicle: saline with Tween-80
[2] = endpoint: mean survival time, dose: 100.0 mg/kg/injection, schedule: Q04DX003 (ip), vehicle: saline with Tween-80
[3] = endpoint: mean survival time, dose: 200.0 mg/kg/injection, schedule: Q01DX009 (ip), vehicle: saline with Tween-80
[4] = endpoint: mean survival time, dose: 200.0 mg/kg/injection, schedule: Q04DX003 (ip), vehicle: saline with Tween-80
[5] = endpoint: mean survival time, dose: 400.0 mg/kg/injection, schedule: Q04DX003 (ip), vehicle: saline with Tween-80
[6] = endpoint: mean survival time, dose: 100.0 mg/kg/injection, schedule: Q04DX003 (ip), vehicle: saline
[7] = endpoint: mean survival time, dose: 200.0 mg/kg/injection, schedule: Q04DX003 (ip), vehicle: saline
[8] = endpoint: mean survival time, dose: 400.0 mg/kg/injection, schedule: Q04DX003 (ip), vehicle: saline
[9] = endpoint: mean survival time, dose: 100.0 mg/kg/injection, schedule: Q01DX001 (ip), vehicle: saline
[10] = endpoint: mean survival time, dose: 200.0 mg/kg/injection, schedule: Q01DX001 (ip), vehicle: saline
[11] = endpoint: mean survival time, dose: 400.0 mg/kg/injection, schedule: Q01DX001 (ip), vehicle: saline

Measured: T/C

CCOc1ccc(-c2nc3ccc(-c4nc5ccc(N6CCN(C)CC6)cc5[nH]4)cc3[nH]2)cc1
inactive: endpoint: median survival time, dose: 0.75 mg/kg/injection, schedule: Q01DX009 (ip), vehicle: saline 112 % of control | endpoint: median survival time, dose: 0.75 mg/kg/injection, schedule: Q01DX009 (ip), vehicle: suspension in saline 94 % of control | endpoint: median survival time, dose: 1.5 mg/kg/injection, schedule: Q01DX009 (ip), vehicle: saline 112 % of control | endpoint: median survival time, dose: 1.5 mg/kg/injection, schedule: Q01DX009 (ip), vehicle: suspension in saline 95 % of control | endpoint: median survival time, dose: 3.0 mg/kg/injection, schedule: Q01DX009 (ip), vehicle: suspension in saline 104 % of control | endpoint: median survival time, dose: 6.0 mg/kg/injection, schedule: Q01DX009 (ip), vehicle: suspension in saline 105 % of control | endpoint: median survival time, dose: 12.0 mg/kg/injection, schedule: Q01DX009 (ip), vehicle: suspension in saline 104 % of control | endpoint: median survival time, dose: 24.0 mg/kg/injection, schedule: Q01DX009 (ip), vehicle: saline 118 % of control | endpoint: median survival time, dose: 24.0 mg/kg/injection, schedule: Q01DX009 (ip), vehicle: suspension in saline 117 % of control

CS(=O)(=O)Nc1ccc(CC#N)cc1
inactive: [1] 98 % of control | [2] 101 % of control | [3] 101 % of control | [4] 107 % of control | endpoint: mean survival time, dose: 400.0 mg/kg/injection, schedule: Q01DX009 (ip), vehicle: saline with Tween-80 102 % of control | [5] 109 % of control

C=C(Br)COCC
inactive: [2] 89 % of control

CC(C)=CCC(O)C1=CC(=O)c2c(O)ccc(O)c2C1=O (centres undefined)
inactive: endpoint: mean survival time, dose: 7.5 mg/kg/injection, schedule: Q04DX003 (ip), vehicle: saline sonified 98 % of control | endpoint: mean survival time, dose: 15.0 mg/kg/injection, schedule: Q04DX003 (ip), vehicle: saline sonified 102 % of control | endpoint: mean survival time, dose: 30.0 mg/kg/injection, schedule: Q04DX003 (ip), vehicle: saline sonified 101 % of control

CN(C1=CC(=O)C(=O)c2ccccc21)c1ccccc1
inactive: endpoint: mean survival time, dose: 75.0 mg/kg/injection, schedule: Q01DX001 (ip), vehicle: saline 97 % of control | endpoint: mean survival time, dose: 150.0 mg/kg/injection, schedule: Q01DX001 (ip), vehicle: saline 95 % of control | endpoint: mean survival time, dose: 300.0 mg/kg/injection, schedule: Q01DX001 (ip), vehicle: saline 100 % of control

COc1ccc(/C=C/C(=O)c2ccc3c(c2)OCO3)cc1OC
inactive: [6] 91 % of control | [7] 93 % of control | [8] 95 % of control

CC1CCC(O)C2(C)CC(O)C(C(C)C(=O)O)CC12 (centres undefined)
inactive: endpoint: mean survival time, dose: 100.0 mg/kg/injection, schedule: Q01DX001 (ip), vehicle: saline with Tween-80 92 % of control | endpoint: mean survival time, dose: 200.0 mg/kg/injection, schedule: Q01DX001 (ip), vehicle: saline with Tween-80 92 % of control | endpoint: mean survival time, dose: 400.0 mg/kg/injection, schedule: Q01DX001 (ip), vehicle: saline with Tween-80 88 % of control

CCOC(=O)Nc1cc2c(c(N)n1)NC(CN(C)c1ccccc1)CN2 (centres undefined)
inactive: endpoint: mean survival time, dose: 100.0 mg/kg/injection, schedule: Q01DX001 (ip), vehicle: Klucel (hydroxypropylcellulose) (HPC) 94 % of control | endpoint: mean survival time, dose: 200.0 mg/kg/injection, schedule: Q01DX001 (ip), vehicle: Klucel (hydroxypropylcellulose) (HPC) 103 % of control | endpoint: mean survival time, dose: 400.0 mg/kg/injection, schedule: Q01DX001 (ip), vehicle: Klucel (hydroxypropylcellulose) (HPC) 110 % of control

Cn1c(=O)c2c(nc(N3CCOCC3)n2CC(O)CF)n(C)c1=O (centres undefined)
inactive: endpoint: mean survival time, dose: 12.5 mg/kg/injection, schedule: Q01DX005 (ip), vehicle: distilled water + Tween-80 95 % of control | endpoint: mean survival time, dose: 25.0 mg/kg/injection, schedule: Q01DX005 (ip), vehicle: distilled water + Tween-80 98 % of control | endpoint: mean survival time, dose: 50.0 mg/kg/injection, schedule: Q01DX005 (ip), vehicle: distilled water + Tween-80 103 % of control | endpoint: mean survival time, dose: 100.0 mg/kg/injection, schedule: Q01DX005 (ip), vehicle: distilled water + Tween-80 97 % of control | endpoint: mean survival time, dose: 200.0 mg/kg/injection, schedule: Q01DX005 (ip), vehicle: distilled water + Tween-80 104 % of control

OC(CN(C1CCCCC1)C1CCCCC1)c1ccc(Cl)c(Cl)c1 (centres undefined)
inactive: [9] 95 % of control | [6] 95 % of control | [10] 91 % of control | [7] 98 % of control | [11] 96 % of control | [8] 101 % of control

C=CCn1nnnc1N
inactive: [6] 101 % of control | [7] 103 % of control | [8] 101 % of control

C#CC(CC(C)CC(C)(C)C)N(C)C (centres undefined)
inactive: [1] 98 % of control

O=C1C=CC(=O)C2C3C=CC(C/C=C\C3)C12 (centres undefined)
inactive: endpoint: mean survival time, dose: 12.5 mg/kg/injection, schedule: Q04DX002 (ip), vehicle: saline with Tween-80 105 % of control | endpoint: mean survival time, dose: 25.0 mg/kg/injection, schedule: Q04DX002 (ip), vehicle: saline with Tween-80 94 % of control | endpoint: mean survival time, dose: 50.0 mg/kg/injection, schedule: Q04DX002 (ip), vehicle: saline with Tween-80 94 % of control

CC1CC(=O)C2CC(Cl)CCC2(C)C1C (centres undefined)
inactive: endpoint: mean survival time, dose: 25.0 mg/kg/injection, schedule: Q01DX009 (ip), vehicle: saline with Tween-80 97 % of control | endpoint: mean survival time, dose: 50.0 mg/kg/injection, schedule: Q01DX009 (ip), vehicle: saline with Tween-80 90 % of control | [1] 94 % of control

COc1ccc(/C=N/N=C(/C(=O)c2ccc(OC)cc2)c2ccc(OC)cc2)cc1
inactive: [9] 95 % of control | [6] 102 % of control | [10] 91 % of control | [7] 97 % of control | [11] 95 % of control | [8] 96 % of control

CSc1nc(N)c2ncn(C3C=CC(O)CO3)c2n1 (centres undefined)
inactive: endpoint: mean survival time, dose: 50.0 mg/kg/injection, schedule: Q01DX001 (ip), vehicle: saline 106 % of control | [9] 106 % of control | [10] 100 % of control | [11] 116 % of control

CC1CN=C(c2ccc(NC(=O)Nc3ccc(NC(=O)c4ccc(C5=NCC(C)N5)cc4)cc3)cc2)N1 (centres undefined)
inactive: endpoint: mean survival time, dose: 26.0 mg/kg/injection, schedule: Q01DX Z (ip), vehicle: water 90 % of control

CCCCCCCCCCC(=O)CCCC
inactive: [2] 98 % of control | [4] 94 % of control | [5] 100 % of control

CCCC[CH2][Pb]([CH2]CCCC)([CH2]CCCC)[O]C(C)=O
inactive: endpoint: mean survival time, dose: 0.25 mg/kg/injection, schedule: Q01DX009 (ip), vehicle: saline with Tween-80 96 % of control | endpoint: mean survival time, dose: 0.5 mg/kg/injection, schedule: Q01DX009 (ip), vehicle: saline with Tween-80 93 % of control | endpoint: mean survival time, dose: 1.0 mg/kg/injection, schedule: Q01DX009 (ip), vehicle: saline with Tween-80 90 % of control | endpoint: mean survival time, dose: 1.0 mg/kg/injection, schedule: Q04DX003 (ip), vehicle: saline with Tween-80 95 % of control

CCSC(=O)CC
inactive: [1] 93 % of control | [3] 98 % of control

CC(C)C(Br)C(=O)NCC(=O)NCC(=O)O (centres undefined)
inactive: [2] 101 % of control | [4] 100 % of control | [5] 92 % of control

O=C(NC1CC1(c1ccccc1)c1ccccc1)NC1CC1(c1ccccc1)c1ccccc1 (centres undefined)
inactive: endpoint: mean survival time, dose: 9.35 mg/kg/injection, schedule: Q01DX001 (ip), vehicle: other 93 % of control | endpoint: mean survival time, dose: 18.7 mg/kg/injection, schedule: Q01DX001 (ip), vehicle: other 91 % of control | endpoint: mean survival time, dose: 37.5 mg/kg/injection, schedule: Q01DX001 (ip), vehicle: other 94 % of control

COC(=O)c1c[nH]c(=S)n1C(C)c1ccccc1 (centres undefined)
inactive: [1] 105 % of control | [2] 93 % of control | [3] 106 % of control | [4] 95 % of control | [5] 101 % of control

OC(CCC(O)CSc1ccccc1)CSc1ccccc1 (centres undefined)
inactive: endpoint: mean survival time, dose: 100.0 mg/kg/injection, schedule: Q01DX009 (ip), vehicle: other 100 % of control | endpoint: mean survival time, dose: 200.0 mg/kg/injection, schedule: Q01DX009 (ip), vehicle: other 100 % of control | endpoint: mean survival time, dose: 400.0 mg/kg/injection, schedule: Q01DX009 (ip), vehicle: other 96 % of control

Oc1ccccc1C=NCCN=Cc1ccccc1O
inactive: [2] 90 % of control | [4] 100 % of control | [5] 92 % of control
